Results taken from US20060217390A1, “Cycloalkl, aryl and heteroaryl amino isothiazoles for the treatment of Hepatitis C virus” (priority 2005, published 2006).
Like-named read-outs stand apart in the source and are kept apart here.

What was measured:
[1] = test system: HCV Con1 subgenomic replicon in Huh-7 cells (NK/luc-ubi-neo); assay: HCV replicon assay (luciferase reporter); assay type: cell-based; settings: anti-HCV activity, class symbols; read-out: Range of EC50 in HCV replicon assay
Method: A human hepatoma cell line (Huh-7) containing replicating HCV Con1 subgenomic replicon with a luciferase reporter gene (luc-ubi-neo) was used to evaluate anti-HCV activity of the compounds. In this assay, the level of luciferase signal correlates directly with the viral RNA replication. The HCV replicon-reporter cell line (NK/luc-ubi-neo) was cultured in DMEM medium supplemented with 10% fetal bovine serum and 0.5 mg/ml Geneticin (G418). Cells were maintained in a subconfluent state to ensure high levels of HCV replicon RNA synthesis.
To evaluate the antiviral activity of compounds, serial dilutions were prepared with concentrations ranging from 0.14 to 300 μM. Diluted compounds were transferred to a 96-well plate followed by the addition of replicon cells (6000 cells per well). Cells were incubated with the compounds for 48 hours after which luciferase activity was measured.

Huh-7 cells = test system: Huh-7 cells
Source text: A Huh-7 cell line carrying a luciferase reporter gene (driven by a HIV LTR promoter) stably integrated into the chromosome was used to analyze the cytotoxic effect of the selected compounds. This cell line (LTR-luc) was maintained in DMEM medium with 10% FBS. Design of the cytotoxicity assay was similar to that of the HCV replicon assay.

HCV replicase complexes = biological target: T1, HCV replicase complexes (Hepatitis C virus genotype 1b, UniProt Q9WMX2); assay: In vitro HCV replicase complex assay; assay type: biochemical; settings: crude membrane fraction of I389/NS3-3 replicon cells
T1 construct: viral non-structural proteins (NS3, NS4A, NS4B, NS5A and NS5B); expressed in transfected cells; host or cells: HCV subgenomic replicon cell line (I389/NS3-3)
T1 sequence (Q9WMX2 2420-3010, one chain of several): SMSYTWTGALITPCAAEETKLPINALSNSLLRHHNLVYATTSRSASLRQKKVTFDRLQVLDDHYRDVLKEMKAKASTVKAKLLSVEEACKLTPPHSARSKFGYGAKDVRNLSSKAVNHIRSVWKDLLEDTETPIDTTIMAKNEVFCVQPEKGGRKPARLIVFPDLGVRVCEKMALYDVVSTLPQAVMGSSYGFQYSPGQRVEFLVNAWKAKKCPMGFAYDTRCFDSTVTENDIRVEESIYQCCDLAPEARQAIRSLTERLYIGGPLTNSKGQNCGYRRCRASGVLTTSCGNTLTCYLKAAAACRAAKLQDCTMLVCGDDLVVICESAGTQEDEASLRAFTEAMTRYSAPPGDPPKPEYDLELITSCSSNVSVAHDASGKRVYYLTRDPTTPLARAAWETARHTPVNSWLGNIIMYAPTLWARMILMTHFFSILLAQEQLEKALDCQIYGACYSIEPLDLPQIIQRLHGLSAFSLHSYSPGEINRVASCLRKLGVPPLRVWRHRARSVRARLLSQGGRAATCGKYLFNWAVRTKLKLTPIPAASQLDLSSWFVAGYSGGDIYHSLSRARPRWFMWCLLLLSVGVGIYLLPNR
Method: Crude membrane fraction containing the replicase complexes (RC) was isolated from the HCV subgenomic replicon cell line (I389/NS3-3) (Lohmann et al., Science 285:110-113, 1999) through Dounce homogenization and high-speed centrifugation (Lai et al., J. Virol. 73:2295-2300). Standard assay mixtures contained 50 mM HEPES (pH 7.3), 10 mM KCl, 10 mM MgCl2, 20 units of ribonuclease inhibitor, 10 μg/ml actinomycin D, 0.5 mM of ATP, GTP, CTP, 10 μCi of [α-^33P] UTP and 0.5 μl of the membrane fraction in a total volume of 20 μl. To determine the inhibitory effect of compounds on the HCV replicase complexes, pre-incubation of the RC membrane fraction with tested compounds was performed in a reaction mixture at 4° C. for 15 minutes. The reaction was then initiated by the addition of the radiolabeled UTP and cold nucleotides and incubated at 30° C. for 1 hour. Products were extracted with phenol/chloroform, precipitated with ethanol, and separated on a 1% agarose gel. After electrophoresis, the gel was dried prior to autoradiography. Radioactivity incorporated into viral RNA was quantitated by using a Phosphorimager (Amersham Biosciences Corp., Piscataway, N.J.) and was used to determine the IC50 value. A number of the exemplary compounds were potent inhibitors that blocked viral RNA synthesis catalyzed by HCV replicase complexes, with IC50 values in the nM range (Table 2).

[2] = test system: parental replicon cells (I389/NS3-3); assay: Sensitivity of parental (wild-type) replicon cells, HCV replicon RNA by quantitative RT-PCR; assay type: cell-based; settings: Wild-type replicon cell line
Method: (§1) A replicon-containing cell line (I389/NS3-3) was used to select the resistant replicons against Compound 1 (Lohmann et al., Science 285:110-113, 1999). Replicon cells were plated in a 100 mm dish, under a subconfluent condition (approximately at 40% confluency). After 24 hours, Compound 1 was added to the cells with the final concentration of 2 μM in the medium containing 1 mg of G418 per ml. After 3 weeks, colonies of cells resistant to Compound 1 were isolated and expanded. Three independent cell lines (w1, w3 and w4) with growth rate similar to that of the parental replicon cells were selected to test for their sensitivity to Compound 1.
(§2) To confirm that viral RNAs in the selected cell lines were resistant to Compound 1, the cells were treated with the compound with concentrations from 0.05 to 5 μM. After 72-hours of treatment, cells were lysed and the cell lysates were diluted with RNase-free water, from which 5 μl was used to quantify the HCV replicon RNA by using real-time quantitative reverse transcriptase (RT) PCR assay (Cheney et al., Virology 297:298-306, 2002). Same quantitative RT-PCR protocol was used to determine the level of the cellular glyceraldhehyde-3-phosphate dehydrogenase (GAPDH) RNA in the same cell lysate, which served as an internal control to normalize the difference of total RNAs. To calculate the EC50 values of Compound 1 against the resistant cell lines, the relative cycle threshold (CT) for the HCV and GAPDH was determined. […] Identification of the Molecular Target

[3] = test system: resistant replicon cell lines (w1, w3 and w4); assay: Sensitivity of resistant replicon cell lines, HCV replicon RNA by quantitative RT-PCR; assay type: cell-based; settings: for EC50: Hepatitis C virus, 72 h, HCV replicon RNA by RT-PCR, 72 hours of treatment; for Fold over wild-type: fold of EC50
Method: as §1, §2

[4] = read-out: Range of CC50 in cytotoxicity assay, cytotoxicity, class symbols

SMILES	EC50 [1] [µM]	CC50 (Huh-7 cells) [µM]	other results
N#Cc1c(Nc2cc(F)c(Br)c(F)c2)s[nH]c1=O	< 1	–	CC50 (Huh-7 cells; [4]): > 50 µM
N#Cc1c(Nc2ccc(Cl)cn2)s[nH]c1=O	10 to 50	–	CC50 (Huh-7 cells; [4]): > 50 µM
N#Cc1c(Nc2ccccc2F)s[nH]c1=O	10 to 50	> 50	–
N#Cc1c(O)nsc1Nc1ccc(Cl)cc1	–	–	IC50 (HCV replicase complexes): 0.05 to 0.1 µM
N#Cc1c(Nc2ccc(I)cc2)s[nH]c1=O	1 to 10	> 50	–
N#Cc1c(Nc2ccc(Br)c(C(F)(F)F)c2)s[nH]c1=O	1 to 10	–	CC50 (Huh-7 cells; [4]): > 50 µM
N#Cc1c(Nc2cc(Cl)c(Cl)c(Cl)c2)s[nH]c1=O	< 1	< 50	–
CC(C)c1cccc(C(C)C)c1Nc1s[nH]c(=O)c1C#N	10 to 50	> 50	–
COc1ccc(Nc2s[nH]c(=O)c2C#N)cc1	10 to 50	> 50	–
N#Cc1c(Nc2cccc(Cl)c2Cl)s[nH]c1=O	> 50	> 50	–
N#Cc1c(Nc2cccc(Br)n2)s[nH]c1=O	10 to 50	–	CC50 (Huh-7 cells; [4]): > 50 µM
N#Cc1c(Nc2ccc(Cl)c(Cl)c2)s[nH]c1=O	< 1	> 50	–
N#Cc1c(Nc2cc(Cl)nc(Cl)c2)s[nH]c1=O	1 to 10	–	CC50 (Huh-7 cells; [4]): < 50 µM
N#Cc1c(Nc2ccc(Br)nc2)s[nH]c1=O	10 to 50	> 50	–
N#Cc1c(NCCc2cccs2)s[nH]c1=O	> 50	> 50	–
N#Cc1c(Nc2ccccc2Cl)s[nH]c1=O	10 to 50	> 50	–
C[C@@]1(O)[C@H](O)[C@@H](CO)O[C@H]1n1cnc2c(N)ncnc21 [2′-C-methyl-adenosine]	–	–	EC50 ([2]; Hepatitis C virus, HCV replicon RNA by RT-PCR, 72 hours of treatment): 0.36 µM; Fold over wild-type ([2]; fold of EC50): 1; EC50 ([3]; resistant cell line W1): 0.16 µM; EC50 ([3]; resistant cell line W3): 0.26 µM; EC50 ([3]; resistant cell line W4): 0.31 µM; sensitivity of resistant cell lines to inhibition ([3]; cell lines w1, w3, w4 selected with Compound 1): still sensitive to inhibition; Fold over wild-type ([3]; resistant cell line W1): 0.4; Fold over wild-type ([3]; resistant cell line W3): 0.7; Fold over wild-type ([3]; resistant cell line W4): 0.9
CC(C)c1ccccc1Nc1s[nH]c(=O)c1C#N	> 50	> 50	–
N#Cc1c(Nc2ccc(Cl)c(C(F)(F)F)c2)s[nH]c1=O [drawing 430]	1 to 10	> 50	–
COc1ccccc1Nc1s[nH]c(=O)c1C#N	10 to 50	> 50	–
Cc1cccc(C)c1Sc1ccc(Nc2s[nH]c(=O)c2C#N)cc1	1 to 10	–	CC50 (Huh-7 cells; [4]): < 50 µM
N#Cc1c(Nc2ccc(Cl)cc2Cl)s[nH]c1=O	10 to 50	> 50	–
N#Cc1c(Nc2ccc(Cl)c(C(F)(F)F)c2)s[nH]c1=O [drawing 483]	–	–	IC50 (HCV replicase complexes): 0.05 to 0.1 µM
N#Cc1c(O)nsc1Nc1cc(Cl)cc(Cl)c1	–	–	IC50 (HCV replicase complexes): < 0.05 µM
N#Cc1c(Nc2ccc(C(F)(F)F)cn2)s[nH]c1=O	10 to 50	> 50	–
N#Cc1c(Nc2ccc(C(=O)O)cc2)s[nH]c1=O	> 50	> 50	–
